According to patent US20240182526A1, “COMPOSITIONS AND METHODS FOR MODULTING INFLAMMATORY AND DEGENERATIVE DISORDER” (University of Southern California, priority 2021, published 2024):
“Also recorded” adds a separate entry of the source.

Assays:
[1] = tested on: mouse skin excisional wound; assay: Wound-induced hair neogenesis (WIHN) assay, skin excisional wound; assay type: in vivo
Method: Single-cell sequencing using 10× Genomics. Single cell samples were prepared using Next GEM Single Cell 5′ v2 (dual index) and Chip Kit (10× Genomics) according to the manufacturer's protocol. Briefly samples were FACS sorted using DAPI to select live cells followed by resuspension in 0.04% BSA-PBS. Nearly 1200 cells/μl were added to each well of the chip with a target cell recovery estimate of 10000 cells. Thereafter Gel bead-in Emulsions (GEMs) were generated using GemCode Single-Cell Instrument. GEMs were reverse transcribed, droplets were broken and single stranded cDNA was isolated. cDNAs were cleaned up with DynaBeads and amplified. Finally, cDNAs were ligated with adapters, post-ligation products were amplified, cleaned-up with SPRIselect and purified libraries were sequenced on Novaseq.
Wound-induced hair neogenesis assay. The WHIN assay was previously described. Briefly, a 1.5×1.5 cm square full thickness wound was excised on the posterior dorsum of 6-week-oldf mice, and observed for hair neogenesis and wound histology. Mice were anesthetized using isofluorane, full thickness skin was excised, and analgesic Buprenorphine SR (0.5 mg/kg) was given by intraperitoneal injection (IP) at the beginning of the procedure. Additional DietGel Boost (ClearH2O) was placed on the bottom of the cage during the first week post-operation. For R805-treatment, R805 (10 μM or 20 μM) was applied topically to the wound of WT mice.
Alkaline phosphatase (ALP) stain. To detect newly forming dermal papillae, alkaline phosphatase staining was performed as previously reported. Briefly, full thickness wounds were excised and epidermis separated from the dermis using 20 mM EDTA. The dermis was fixed in acetone overnight at 4° C., and washed in PBS several times. The dermis was pre-incubated in ALP buffer (0.1 M Tris-HCl, 0.1 M NaCl, 5 mM MgCl2 and 0.1% Tween-20) for 30 min, incubated with BCIP/NBT Color Development Substrate (Promega, Madison, WI, USA) in ALP buffer at 37° C. until color development. The reaction was stopped by washing with pH 8.0 Tris-EDTA and the tissue stored in PBS with sodium azide. 5 wounds were calculated for each strain of mice.
Hair fiber length quantification. To quantify regenerated hair fiber length, hair fibers from respective wounds were plucked, aligned and photographed next to a ruler under the dissecting microscope. The length of the hair fibers was measured and analyzed using ImageJ. 3-4 hairs were randomly plucked from each wound and analyzed.

[2] = tested on: ADAMTS4, ADAMTS5 and MMP13 transcription; assay: qPCR of matrix-degrading genes in OSM-stimulated pig articular chondrocytes; assay type: cell-based; conditions: 48 hours
Method: Quantitative Real-Time PCR. Power SYBR Green (Applied Biosystems) RT-PCR amplification and detection was performed using an Applied Biosystems Step One Plus Real-Time PCR machine. The comparative Ct method for relative quantification (2-ΔΔCt) was used to quantitate gene expression. TBP (TATA-box binding protein) was used for gene normalization and expressed relative to a calibrator (sample in each set with lowest expression). Q-PCR for was conducted using the following primers: human: TBP forward, 5′ GATGGACGTTCGGTTTAGG 3′ (SEQ ID NO:28); TBP reverse, 5′ AGCAGCACAGTACGAGCAA 3′ (SEQ ID NO:29), MMP13 forward, 5′ […] 3′(SEQ ID NO:30); MMP13 reverse, 5′ GAACCCCGCATCTTGGCTT 3′ (SEQ ID NO:31), ADAMTS5 forward 5′ […] 3′ (SEQ ID NO:32); ADAMTS5 reverse, 5′ […] 3′ (SEQ ID NO:33), ADAMTS4 forward 5′ […] 3′ (SEQ ID NO:34); ADAMTS4 reverse, 5′ […] 3′ (SEQ ID NO:35), Collagen II forward, 5′ […] 3′ (SEQ ID NO:36); Collagen II reverse 5′ […] 3′ (SEQ ID NO:37); Aggrecan forward, 5′ AGGCAGCGTGATCCTTACC 3′ (SEQ ID NO:38); Aggrecan reverse, 5′ […] 3′ (SEQ ID NO:39). Cells were treated with 10 ng/mL OSM and/or with 5 μM SRC (SU6656) inhibitor, 10 ng/mL OSM and/or 50 ng/mL WT/F814 plasmids; 10 ng/mL OSM and/or 100 or 300 ug/mL of peptide QQpYF (Evseenko lab, Thermo Scientific); 10 uM R805 and/or 10 ng/mL OSM.

gp130 pY814 = target: T1, gp130 pY814 (Sus scrofa, UniProt A0A4X1SIN4); assay: Western blot of gp130 pY814 in OSM-stimulated pig articular chondrocytes; assay type: cell-based; conditions: with OSM, 4 and 24 hours
T1 construct: endogenous in cells; host or cells: pig articular chondrocytes (Yucatan minipig)
Method: For standard western blot, treated and non-treated cells were lysed in RIPA Lysis and Extraction Buffer (Pierce, Rockford, IL) containing protease inhibitors (Pierce) followed by sonication with a 15-second pulse at a power output of 2 using the VirSonic 100 (SP Industries Company, Warminster, PA). Protein concentrations were determined by BCA protein assay (Pierce). Proteins were resolved with SDS-PAGE utilizing 4-15% Mini-PROTEAN TGX Precast Gels and transferred to Trans-Blot Turbo Transfer Packs with a 0.2-μm pore-size nitrocellulose membrane. The SDS-PAGE running buffer, 4-15% Mini-PROTEAN TGX Precast Gels, Trans-Blot Turbo Transfer Packs with a 0.2-μm pore-size nitrocellulose membrane was purchased from Biorad (Hercules, CA). Nitrocellulose membranes were blocked in 5% nonfat milk in 0.05% (v/v) Tween 20 (PBST) (Corning, Manassas, VA). Membranes were then incubated with primary antibodies p-gp130 Y814 (Evseenko lab, AbClonal), p-AKT (cat #4060, Cell Signaling), p-ERK 1/2 (cat #9106, Cell Signaling), p-Y416-SRC (cat #1246F, Novus Biologicals), p-gp130 (cat #1453R, Bioss USA) and p-NFκBp65 (cat #8242, Cell Signaling), and/or YAP1 (cat #4912, Cell Signaling). Histone H3 (cat #9515, Cell Signaling) was used as loading control. […] Quantification of blots was performed using ImageJ 1.44 followed by Prism9 for analysis.

[3] = topical on WT mouse wound, PWD 21

T1 sequence (A0A4X1SIN4 23-917): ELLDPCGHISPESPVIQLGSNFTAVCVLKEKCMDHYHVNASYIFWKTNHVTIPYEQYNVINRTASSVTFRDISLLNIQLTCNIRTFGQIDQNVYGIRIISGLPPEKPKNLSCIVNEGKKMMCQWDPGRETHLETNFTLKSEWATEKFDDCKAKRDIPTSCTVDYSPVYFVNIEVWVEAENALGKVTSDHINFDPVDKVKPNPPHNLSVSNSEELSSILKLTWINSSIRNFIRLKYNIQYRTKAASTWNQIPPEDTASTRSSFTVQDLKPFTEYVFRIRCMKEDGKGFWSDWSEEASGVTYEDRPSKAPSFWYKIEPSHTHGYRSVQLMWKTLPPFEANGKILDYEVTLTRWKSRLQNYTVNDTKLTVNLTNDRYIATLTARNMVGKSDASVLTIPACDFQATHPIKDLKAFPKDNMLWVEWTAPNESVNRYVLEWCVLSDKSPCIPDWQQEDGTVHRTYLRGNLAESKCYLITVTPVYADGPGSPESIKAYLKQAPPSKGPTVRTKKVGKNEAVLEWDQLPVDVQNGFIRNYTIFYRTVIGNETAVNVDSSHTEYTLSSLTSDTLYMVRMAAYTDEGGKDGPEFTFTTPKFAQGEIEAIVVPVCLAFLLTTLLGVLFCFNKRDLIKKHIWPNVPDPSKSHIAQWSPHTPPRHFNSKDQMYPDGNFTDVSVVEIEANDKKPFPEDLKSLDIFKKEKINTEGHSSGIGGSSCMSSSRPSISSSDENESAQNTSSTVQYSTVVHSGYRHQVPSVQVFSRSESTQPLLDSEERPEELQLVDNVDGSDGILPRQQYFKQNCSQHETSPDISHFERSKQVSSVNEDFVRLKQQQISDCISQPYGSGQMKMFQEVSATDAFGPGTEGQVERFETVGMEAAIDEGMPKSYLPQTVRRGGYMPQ

With `Cc1ccc(-c2csc(NC(=O)c3ccccn3)n2)cc1` [Peptide R805] the “scRNA-seq macrophage clusters of skin wounds” value ([1]; PWD 14) was “higher expression of genes characteristic of pro-regenerative/anti-inflammatory macrophages”, the “hair fiber length and number of hair follicles” value ([1]; topical on WT mouse wound) was “increase of hair fiber length and number of hair follicles” and the “hair follicle neogenesis and dermal regeneration” value [1, 3] was “significant hair follicle neogenesis and dermal regeneration; also recorded: enhanced wound-induced hair neogenesis”. The “wound histology (thickness, contraction, collagen deposition)” value [1, 3] was “thicker, less contracted and shows less collagen deposition”, the “OSM-induced transcription of matrix-degrading genes (ADAMTS4, ADAMTS5, MMP13), qPCR” value [2] was “able to decrease the MMP13 and ADAMTS4/5 gene expression” and the “OSM-stimulated activation of gp130 Y814 (protein expression of gp130 pY814)” value (gp130 pY814) was “prevents Y814 activation in response to IL-6 cytokines; also recorded: selectively inhibited OSM-stimulated activation of Y814”. The “OSM-stimulated activation of gp130 Y814 (protein expression of gp130 pY814)” value (gp130 pY814; listed as CX-011) was “potent inhibitor of OSM-stimulated activation of gp130 Y814”.
